Tested on: TPM3-NTRK1-wt IC50 / primary target (e.g. CD74-ROS1-wt) IC50, Ba/F3 cells
Experiment: Cell assay TRKA selectivity (TRKA potency divided by primary target potency)
Assay type: cell-based
Settings: for TPM3-NTRK1-wt/CD74-ROS1-G2032R: TRKA selectivity ratio: TPM3-NTRK1-wt IC50 / CD74-ROS1-G2032R IC50, Ba/F3 cells; for TPM3-NTRK1-wt/CD74-ROS1-wt: TRKA selectivity ratio: TPM3-NTRK1-wt IC50 / CD74-ROS1-wt IC50, Ba/F3 cells; for TPM3-NTRK1-wt/EML4-ALK-L1196M-G1202R: TRKA selectivity ratio: TPM3-NTRK1-wt IC50 / EML4-ALK-L1196M-G1202R IC50, Ba/F3 cells; for TPM3-NTRK1-wt/EML4-ALK-wt: TRKA selectivity ratio: TPM3-NTRK1-wt IC50 / EML4-ALK-wt IC50, Ba/F3 cells
Excerpt: Genes encoding CD74-ROS1 wild-type (wt), CD74-ROS1 G2032R, CD74-ROS1 S1986F, CD74-ROS1 L2026M, CD74-ROS1 D2033N, EML4-ALK wt (variant 1), EML4-ALK G1202R (variant 1), EML4-ALK L1196M/G1202R (variant 1), EML4-ALK G1202R/G1269A (variant 1), EML4-ALK G1202R/L1198F (variant 1), and TPM3-TRKA were synthesized at GeneRay, cloned into the retroviral construct pMSCV-puro (Biovector), and packaged into retroviral particles. The virus was used to infect Ba/F3 cells (RIKEN) at multiplicity of infection=1 for 1 day. Infected cells were rescued in media (RPMI-1640 with 10% fetal bovine serum and 1% streptomycin and penicillin) supplemented with mouse IL-3 (10 ng/mL) for 2 days, and stable cell lines were selected by IL-3 withdrawal and puromycin (0.8 μg/mL) for 7 days. Monoclones were selected by single-cell dilution in IL-3-free medium containing puromycin (0.8 μg/mL). Transformation of desired genes was confirmed by Sanger sequencing and western blot using the following antibodies: ROS1 (CST #3287), ALK (CST #3633), and pan-TRK (Abcam #76291).
Stable cells were plated at 1,000 cells/well (40 μL) in a 384-well plate for 1 day. Test compounds (40 nL) were then added in a 3-fold dilution series using the TECAN EVO200 liquid handler and incubated for 72 hours. Plates were equilibrated at room temperature for 15 minutes followed by addition of 40 μL CellTiter-Glo reagent (Promega). Luminescence was measured on a plate reader. Half-maximal inhibitory concentration (IC50) was calculated from percent inhibition and inhibitor concentration using four-parameter logistic regression. […] Exemplary data is given in Table 4 (nd is not determined).
TRKA selectivity was calculated by dividing a compound's TRKA potency by its primary target potency (e.g. TPM3-NTRK1-wt IC50/CD74-ROS1-wt IC50). Compound selectivity can be interpreted by binning ratio values: bin A for very high selectivity, ratio>30-fold; bin B for high selectivity, ratio>10-fold; bin C for moderate selectivity, ratio≥1; and bin D for low selectivity, ratio<1. […] (nd=not determined).

Structure (SMILES): C[C@H]1Oc2cc(cnc2N)-c2c(cnn2CC(F)(F)F)Cc2cn(C)nc2-c2ccc(F)cc21 [Example 27, (19R)-16-fluoro-10,19-dimethyl-3-(2,2,2-trifluoroethyl)-20-oxa-3,4,10,11,23-pentaazapentacyclo[19.3.1.0^2,^6.0^8,^12.0^13,^18]pentacosa-1(24),2(6),4,8,11,13,15,17,21(25),22-decaen-22-amine]
- TPM3-NTRK1-wt/CD74-ROS1-G2032R: A (bin A for very high selectivity, ratio>30-fold)
- TPM3-NTRK1-wt/CD74-ROS1-wt: A (bin A for very high selectivity, ratio>30-fold)
- TPM3-NTRK1-wt/EML4-ALK-L1196M-G1202R: A (bin A for very high selectivity, ratio>30-fold)
- TPM3-NTRK1-wt/EML4-ALK-wt: A (bin A for very high selectivity, ratio>30-fold)

Structure (SMILES): COc1cc2n(n1)-c1ccc(F)cc1[C@@H](C)Oc1cc(cnc1N)-c1c(c(C)nn1CC1CC1)C2 [Example 124, (19R)-3-(cyclopropylmethyl)-16-fluoro-10-methoxy-5,19-dimethyl-20-oxa-3,4,11,12,23-pentaazapentacyclo[19.3.1.0^2,^6.0^8,^12.0^13,^18]pentacosa-1(24),2(6),4,8,10,13,15,17,21(25),22-decaen-22-amine]
- TPM3-NTRK1-wt/CD74-ROS1-G2032R: A (bin A for very high selectivity, ratio>30-fold)
- TPM3-NTRK1-wt/CD74-ROS1-wt: A (bin A for very high selectivity, ratio>30-fold)
- TPM3-NTRK1-wt/EML4-ALK-L1196M-G1202R: A (bin A for very high selectivity, ratio>30-fold)
- TPM3-NTRK1-wt/EML4-ALK-wt: A (bin A for very high selectivity, ratio>30-fold)

Structure (SMILES): Cc1nn(CC2CC2)c2c1Cc1cc(C(F)F)nn1-c1ccc(F)cc1COc1cc-2cnc1N [Example 136, 3-(cyclopropylmethyl)-10-(difluoromethyl)-16-fluoro-5-methyl-20-oxa-3,4,11,12,23-pentaazapentacyclo[19.3.1.0^2,^6.0^8,^12.0^13,^18]pentacosa-1(24),2(6),4,8,10,13,15,17,21(25),22-decaen-22-amine]
- TPM3-NTRK1-wt/CD74-ROS1-G2032R: A (bin A for very high selectivity, ratio>30-fold)
- TPM3-NTRK1-wt/CD74-ROS1-wt: A (bin A for very high selectivity, ratio>30-fold)
- TPM3-NTRK1-wt/EML4-ALK-L1196M-G1202R: A (bin A for very high selectivity, ratio>30-fold)
- TPM3-NTRK1-wt/EML4-ALK-wt: A (bin A for very high selectivity, ratio>30-fold)

Structure (SMILES): CCn1ncc2c1-c1cnc(N)c(c1)OCc1cc(F)ccc1-n1nc(Cl)cc1C2 [Example 75, 10-chloro-3-ethyl-16-fluoro-20-oxa-3,4,11,12,23-pentaazapentacyclo[19.3.1.0^2,^6.0^8,^12.0^13,^18]pentacosa-1(24),2(6),4,8,10,13,15,17,21(25),22-decaen-22-amine]
- TPM3-NTRK1-wt/CD74-ROS1-G2032R: A (bin A for very high selectivity, ratio>30-fold)
- TPM3-NTRK1-wt/CD74-ROS1-wt: A (bin A for very high selectivity, ratio>30-fold)
- TPM3-NTRK1-wt/EML4-ALK-L1196M-G1202R: C (bin C for moderate selectivity, ratio≥1)
- TPM3-NTRK1-wt/EML4-ALK-wt: A (bin A for very high selectivity, ratio>30-fold)

Structure (SMILES): Cc1nn(CC2CC2)c2c1Cc1cccnc1-c1ccc(F)cc1[C@@H](C)Oc1cc-2cnc1N [Example 135, (20R)-3-(cyclopropylmethyl)-17-fluoro-5,20-dimethyl-21-oxa-3,4,12,24-tetraazapentacyclo[20.3.1.0^2,^6.0^8,^13.0^14,^19]hexacosa-1(25),2(6),4,8(13),9,11,14,16,18,22(26),23-undecaen-23-amine]
- TPM3-NTRK1-wt/CD74-ROS1-G2032R: A (bin A for very high selectivity, ratio>30-fold)
- TPM3-NTRK1-wt/CD74-ROS1-wt: A (bin A for very high selectivity, ratio>30-fold)
- TPM3-NTRK1-wt/EML4-ALK-L1196M-G1202R: A (bin A for very high selectivity, ratio>30-fold)
- TPM3-NTRK1-wt/EML4-ALK-wt: A (bin A for very high selectivity, ratio>30-fold)

Structure (SMILES): C[C@H]1Oc2cc(cnc2N)-c2c(C#N)nn(C)c2Cc2cc(Cl)nn2-c2ccc(F)cc21 [Example 103, (19R)-22-amino-10-chloro-16-fluoro-5,19-dimethyl-20-oxa-4,5,11,12,23-pentaazapentacyclo[19.3.1.0^2,^6.0^8,^12.0^13,^18]pentacosa-1(24),2(6),3,8,10,13,15,17,21(25),22-decaene-3-carbonitrile]
- TPM3-NTRK1-wt/CD74-ROS1-G2032R: A (bin A for very high selectivity, ratio>30-fold)
- TPM3-NTRK1-wt/CD74-ROS1-wt: A (bin A for very high selectivity, ratio>30-fold)
- TPM3-NTRK1-wt/EML4-ALK-L1196M-G1202R: B (bin B for high selectivity, ratio>10-fold)
- TPM3-NTRK1-wt/EML4-ALK-wt: A (bin A for very high selectivity, ratio>30-fold)

Structure (SMILES): Cc1nc2c(s1)Cc1c(C)nn(CC3CC3)c1-c1cnc(N)c(c1)O[C@H](C)c1cc(F)ccc1-2 [Example 134, (19R)-3-(cyclopropylmethyl)-16-fluoro-5,10,19-trimethyl-20-oxa-9-thia-3,4,11,23-tetraazapentacyclo[19.3.1.0^2,^6.0^8,^12.0^13,^18]pentacosa-1(24),2(6),4,8(12),10,13,15,17,21(25),22-decaen-22-amine]
- TPM3-NTRK1-wt/CD74-ROS1-G2032R: A (bin A for very high selectivity, ratio>30-fold)
- TPM3-NTRK1-wt/CD74-ROS1-wt: A (bin A for very high selectivity, ratio>30-fold)
- TPM3-NTRK1-wt/EML4-ALK-L1196M-G1202R: A (bin A for very high selectivity, ratio>30-fold)
- TPM3-NTRK1-wt/EML4-ALK-wt: A (bin A for very high selectivity, ratio>30-fold)

Structure (SMILES): Cc1cc2n(n1)-c1ccc(F)cc1[C@@H](C)Oc1cc(cnc1N)-c1c(C#N)nn(C)c1C2 [Example 97, (19R)-22-amino-16-fluoro-5,10,19-trimethyl-20-oxa-4,5,11,12,23-pentaazapentacyclo[19.3.1.0^2,^6.0^8,^12.0^13,^18]pentacosa-1(24),2(6),3,8,10,13,15,17,21(25),22-decaene-3-carbonitrile]
- TPM3-NTRK1-wt/CD74-ROS1-G2032R: A (bin A for very high selectivity, ratio>30-fold)
- TPM3-NTRK1-wt/CD74-ROS1-wt: A (bin A for very high selectivity, ratio>30-fold)
- TPM3-NTRK1-wt/EML4-ALK-L1196M-G1202R: B (bin B for high selectivity, ratio>10-fold)
- TPM3-NTRK1-wt/EML4-ALK-wt: A (bin A for very high selectivity, ratio>30-fold)

Structure (SMILES): Cn1nc(C#N)c2c1Cc1cccnc1-c1ccc(F)cc1COc1cc-2cnc1N [Example 101, 23-amino-17-fluoro-5-methyl-21-oxa-4,5,12,24-tetraazapentacyclo[20.3.1.0^2,^6.0^8,^13.0^14,^19]hexacosa-1(25),2(6),3,8(13),9,11,14,16,18,22(26),23-undecaene-3-carbonitrile]
- TPM3-NTRK1-wt/CD74-ROS1-G2032R: A (bin A for very high selectivity, ratio>30-fold)
- TPM3-NTRK1-wt/CD74-ROS1-wt: A (bin A for very high selectivity, ratio>30-fold)
- TPM3-NTRK1-wt/EML4-ALK-L1196M-G1202R: A (bin A for very high selectivity, ratio>30-fold)
- TPM3-NTRK1-wt/EML4-ALK-wt: A (bin A for very high selectivity, ratio>30-fold)

Structure (SMILES): CCc1nn(C)c2c1-c1cnc(N)c(c1)O[C@H](C)c1cc(F)ccc1-c1nc(C)sc1C2 [Example 173, (19R)-3-ethyl-16-fluoro-5,10,19-trimethyl-20-oxa-9-thia-4,5,11,23-tetraazapentacyclo[19.3.1.0^2,^6.0^8,^12.0^13,^18]pentacosa-1(24),2(6),3,8(12),10,13,15,17,21(25),22-decaen-22-amine]
- TPM3-NTRK1-wt/CD74-ROS1-G2032R: A (bin A for very high selectivity, ratio>30-fold)
- TPM3-NTRK1-wt/CD74-ROS1-wt: A (bin A for very high selectivity, ratio>30-fold)
- TPM3-NTRK1-wt/EML4-ALK-L1196M-G1202R: B (bin B for high selectivity, ratio>10-fold)
- TPM3-NTRK1-wt/EML4-ALK-wt: A (bin A for very high selectivity, ratio>30-fold)

Source: patent publication US11667649B2, “Heteroaromatic macrocyclic ether chemotherapeutic agents” (Nuvalent, Inc., priority 2020, dated 2023)
